This is an account of results in PMC5218480 (PLoS ONE, 2017).

Each structure is given as a SMILES string.

The test system of this experiment is MV-4-11 cells. The experiment is described as follows: Gene expression microarray analysis (Affymetrix PrimeView) and GSEA. Also on record: RFU PODN (11730768_x_at) / Fold change /veh PODN (11730768_x_at) / RFU LINC00158 (11744669_a_at) / Fold change /veh LINC00158 (11744669_a_at) / RFU DUSP10 (11751237_a_at) / Fold change /veh DUSP10 (11751237_a_at) / RFU ID3 (11757404_x_at) / Fold change /veh ID3 (11757404_x_at) / RFU PLEKHG5 (11737974_s_at) / Fold change /veh PLEKHG5 (11737974_s_at) / RFU LRRC4B (11730491_at) / Fold change /veh LRRC4B (11730491_at) / RFU GIMAP4 (11747438_a_at) / Fold change /veh GIMAP4 (11747438_a_at) / RFU KRT8 (11758183_x_at) / Fold change /veh KRT8 (11758183_x_at) / RFU CNN1 (11734310_a_at) / Fold change /veh CNN1 (11734310_a_at) / RFU VPS37D (11726825_at) / Fold change /veh VPS37D (11726825_at) / RFU C10orf10 (11716522_x_at) / Fold change /veh C10orf10 (11716522_x_at) / RFU KIR2DL2 /// KIR2DL4 /// KIR2DL5A /// KIR2DL5B /// KIR2DS1 /// KIR2DS2 /// KIR2DS3 /// KIR2DS4 /// KIR3DL3 /// KIR3DL3 /// KIR3DS1 (11738374_at) / Fold change /veh KIR2DL2 /// KIR2DL4 /// KIR2DL5A /// KIR2DL5B /// KIR2DS1 /// KIR2DS2 /// KIR2DS3 /// KIR2DS4 /// KIR3DL3 /// KIR3DL3 /// KIR3DS1 (11738374_at) / RFU C1QL1 (11718748_at) / Fold change /veh C1QL1 (11718748_at) / RFU TMPRSS4 (11747572_a_at) / Fold change /veh TMPRSS4 (11747572_a_at) / RFU HAMP (11756126_x_at) / Fold change /veh HAMP (11756126_x_at) / RFU RNFT2 (11725882_a_at) / Fold change /veh RNFT2 (11725882_a_at) / RFU NR4A2 (11747474_a_at) / Fold change /veh NR4A2 (11747474_a_at) / RFU ABCC12 (11746883_a_at) / Fold change /veh ABCC12 (11746883_a_at) / RFU TMEM136 (11760407_x_at) / Fold change /veh TMEM136 (11760407_x_at) / RFU CLDN22 /// WWC2 (11732394_at) / Fold change /veh CLDN22 /// WWC2 (11732394_at) / RFU HLA-DPB1 (11760878_x_at) / Fold change /veh HLA-DPB1 (11760878_x_at) / RFU SPINT1 (11716480_a_at) / Fold change /veh SPINT1 (11716480_a_at) / RFU GAP43 (11754022_s_at) / Fold change /veh GAP43 (11754022_s_at) / RFU A4GNT (11735810_at) / Fold change /veh A4GNT (11735810_at) / RFU PRB3 (11715151_x_at) / Fold change /veh PRB3 (11715151_x_at) / RFU TUBB4B (11761932_at) / Fold change /veh TUBB4B (11761932_at) / RFU CAPN14 (11732068_a_at) / Fold change /veh CAPN14 (11732068_a_at) / RFU TMCC2 (11721928_a_at) / Fold change /veh TMCC2 (11721928_a_at) / RFU IRGQ (11745062_a_at) / Fold change /veh IRGQ (11745062_a_at) / RFU FAM174B (11720279_a_at) / Fold change /veh FAM174B (11720279_a_at) / RFU TMPRSS4 (11748680_a_at) / Fold change /veh TMPRSS4 (11748680_a_at) / RFU FAM212B (11763350_a_at) / Fold change /veh FAM212B (11763350_a_at) / RFU PLEKHG5 (11743358_a_at) / Fold change /veh PLEKHG5 (11743358_a_at) / RFU ZSCAN30 (11745921_a_at) / Fold change /veh ZSCAN30 (11745921_a_at) / RFU CMKLR1 (11741424_a_at) / Fold change /veh CMKLR1 (11741424_a_at) / RFU LOC101060620 /// MAPK8IP1 (11723275_at) / Fold change /veh LOC101060620 /// MAPK8IP1 (11723275_at) / RFU SPTSSB (11747773_x_at) / Fold change /veh SPTSSB (11747773_x_at) / RFU PRSS12 (11739890_at) / Fold change /veh PRSS12 (11739890_at) / RFU BIN1 (11741810_x_at) / Fold change /veh BIN1 (11741810_x_at) / RFU WNT11 (11732464_a_at) / Fold change /veh WNT11 (11732464_a_at) / RFU C10orf10 (11716521_a_at) / Fold change /veh C10orf10 (11716521_a_at) / RFU C5orf56 (11738089_at) / Fold change /veh C5orf56 (11738089_at) / RFU CYB561 (11721691_x_at) / Fold change /veh CYB561 (11721691_x_at) / RFU ANKRD19P (11752326_a_at) / Fold change /veh ANKRD19P (11752326_a_at) / RFU OR2T12 /// OR2T33 /// OR2T8 (11738714_s_at) / Fold change /veh OR2T12 /// OR2T33 /// OR2T8 (11738714_s_at) / RFU VCAN (11748164_a_at) / Fold change /veh VCAN (11748164_a_at) / RFU JSRP1 (11732532_at) / Fold change /veh JSRP1 (11732532_at) / RFU KRTAP10-11 (11738290_x_at) / Fold change /veh KRTAP10-11 (11738290_x_at) / RFU MYO3A (11730013_a_at) / Fold change /veh MYO3A (11730013_a_at) / RFU EBF3 (11725865_a_at) / Fold change /veh EBF3 (11725865_a_at) / RFU CAMK2N1 (11719241_x_at) / Fold change /veh CAMK2N1 (11719241_x_at) / RFU C5orf56 (11738088_a_at) / Fold change /veh C5orf56 (11738088_a_at) / RFU OLFML3 (11715873_a_at) / Fold change /veh OLFML3 (11715873_a_at) / RFU LOC100653217 /// NTM (11731650_a_at) / Fold change /veh LOC100653217 /// NTM (11731650_a_at) / RFU MAPK11 (11762145_a_at) / Fold change /veh MAPK11 (11762145_a_at) / RFU FIZ1 (11724087_x_at) / Fold change /veh FIZ1 (11724087_x_at) / RFU OASL (11726364_x_at) / Fold change /veh OASL (11726364_x_at) / RFU SOX15 (11748057_x_at) / Fold change /veh SOX15 (11748057_x_at) / RFU CD79A (11719716_a_at) / Fold change /veh CD79A (11719716_a_at) / RFU HIST1H1D (11736915_at) / Fold change /veh HIST1H1D (11736915_at) / RFU CASKIN2 (11723855_a_at) / Fold change /veh CASKIN2 (11723855_a_at) / RFU LOC730098 (11760151_x_at) / Fold change /veh LOC730098 (11760151_x_at) / RFU OR4N2 (11742367_at) / Fold change /veh OR4N2 (11742367_at) / RFU PRRT2 (11749266_a_at) / Fold change /veh PRRT2 (11749266_a_at) / RFU SNX32 (11753110_a_at) / Fold change /veh SNX32 (11753110_a_at) / RFU CDHR5 (11726645_a_at) / Fold change /veh CDHR5 (11726645_a_at) / RFU RCAN1 (11760418_a_at) / Fold change /veh RCAN1 (11760418_a_at) / RFU FAM167A (11723789_a_at) / Fold change /veh FAM167A (11723789_a_at) / RFU FAM26E (11764081_at) / Fold change /veh FAM26E (11764081_at) / RFU ISYNA1 (11749810_s_at) / Fold change /veh ISYNA1 (11749810_s_at) / RFU ACY1 (11761880_at) / Fold change /veh ACY1 (11761880_at) / RFU 11764098_at / Fold change /veh 11764098_at / RFU SAMD14 (11745864_x_at) / Fold change /veh SAMD14 (11745864_x_at) / RFU NPB (11741838_a_at) / Fold change /veh NPB (11741838_a_at) / RFU TMPRSS6 (11731388_a_at) / Fold change /veh TMPRSS6 (11731388_a_at) / RFU KRTAP10-2 (11738614_at) / Fold change /veh KRTAP10-2 (11738614_at) / RFU ARHGAP8 /// PRR5-ARHGAP8 (11727945_x_at) / Fold change /veh ARHGAP8 /// PRR5-ARHGAP8 (11727945_x_at) / RFU KRTAP5-7 /// NADSYN1 (11734609_at) / Fold change /veh KRTAP5-7 /// NADSYN1 (11734609_at) / RFU RASL12 (11751679_a_at) / Fold change /veh RASL12 (11751679_a_at) / RFU CDKN2B (11736163_a_at) / Fold change /veh CDKN2B (11736163_a_at) / RFU PRF1 (11729649_at) / Fold change /veh PRF1 (11729649_at) / RFU, ZNF638 /// ZNF638-IT1 / Fold change vs veh, ZNF638 /// ZNF638-IT1 / RFU, PANK3 / Fold change vs veh, PANK3 / RFU, SH3YL1 / Fold change vs veh, SH3YL1 / RFU, ZEB2 / Fold change vs veh, ZEB2 / RFU, NRIP1 / Fold change vs veh, NRIP1 / RFU, PTTG1IP / Fold change vs veh, PTTG1IP / RFU, CAPN2 / Fold change vs veh, CAPN2 / RFU, MED14 / Fold change vs veh, MED14 / RFU, SNORA58 / Fold change vs veh, SNORA58 / RFU, C1orf63 / Fold change vs veh, C1orf63 / RFU, LRRFIP1 / Fold change vs veh, LRRFIP1 / RFU, NDUFAF7 / Fold change vs veh, NDUFAF7 / RFU, SLC12A2 / Fold change vs veh, SLC12A2 / RFU, IBTK / Fold change vs veh, IBTK / RFU, ESF1 / Fold change vs veh, ESF1 / Fold change vs veh, TMEM50B / RFU, TAOK1 / Fold change vs veh, TAOK1 / RFU, ACBD3 / Fold change vs veh, ACBD3 / RFU, TMA16 / Fold change vs veh, TMA16 / RFU, RWDD3 / Fold change vs veh, RWDD3 / RFU, BCAT1 / Fold change vs veh, BCAT1 / RFU, EDEM3 / Fold change vs veh, EDEM3 / RFU, TMEM33 / Fold change vs veh, TMEM33 / RFU, WDR75 / Fold change vs veh, WDR75 / RFU, AHCTF1 / Fold change vs veh, AHCTF1 / RFU, TFRC / Fold change vs veh, TFRC / RFU, ZDHHC17 / Fold change vs veh, ZDHHC17 / RFU, NOM1 / Fold change vs veh, NOM1 / RFU, ARL8B / Fold change vs veh, ARL8B / RFU, ZBTB11 / Fold change vs veh, ZBTB11 / RFU, TAMM41 / Fold change vs veh, TAMM41 / RFU, KIAA1704 /// LOC100996395 / Fold change vs veh, KIAA1704 /// LOC100996395 / RFU, ING1 / Fold change vs veh, ING1 / RFU, TRMT61B / Fold change vs veh, TRMT61B / RFU, FUBP3 / Fold change vs veh, FUBP3 / RFU, TP53 / Fold change vs veh, TP53 / RFU, TNKS2 / Fold change vs veh, TNKS2 / RFU, ZFP14 / Fold change vs veh, ZFP14 / RFU, ACTR2 / Fold change vs veh, ACTR2 / RFU, PPP3R1 / Fold change vs veh, PPP3R1 / RFU, PIK3R1 / Fold change vs veh, PIK3R1 / RFU, HNRNPA1 / Fold change vs veh, HNRNPA1 / RFU, RNF170 / Fold change vs veh, RNF170 / RFU, ZNF28 / Fold change vs veh, ZNF28 / RFU, RNGTT / Fold change vs veh, RNGTT / RFU, OGT / Fold change vs veh, OGT / RFU, BRD1 / Fold change vs veh, BRD1 / RFU, MARS / Fold change vs veh, MARS / RFU, ZNF655 / Fold change vs veh, ZNF655 / RFU, FAHD1 / Fold change vs veh, FAHD1 / RFU, BDP1 / Fold change vs veh, BDP1 / RFU, LRRCC1 / Fold change vs veh, LRRCC1 / RFU, ARID1A / Fold change vs veh, ARID1A / RFU, ZNF146 / Fold change vs veh, ZNF146 / RFU, ZNF330 / Fold change vs veh, ZNF330 / RFU, GPN3 / Fold change vs veh, GPN3 / RFU, C9orf123 / Fold change vs veh, C9orf123 / RFU, N4BP2L2 / Fold change vs veh, N4BP2L2 / RFU, ARFIP1 / Fold change vs veh, ARFIP1 / RFU, FAM179B / Fold change vs veh, FAM179B / RFU, BCL10 / Fold change vs veh, BCL10 / RFU, UHRF1BP1L / Fold change vs veh, UHRF1BP1L / RFU, BET1 / Fold change vs veh, BET1 / RFU, CNOT2 / Fold change vs veh, CNOT2 / RFU, ZNF268 / Fold change vs veh, ZNF268 / Fold change vs veh, ZNF507 / RFU, DGCR2 / Fold change vs veh, DGCR2 / RFU, WDSUB1 / Fold change vs veh, WDSUB1 / Fold change vs veh, HSP90B1 /// MIR3652 / RFU, ADSS / Fold change vs veh, ADSS / RFU, GK / Fold change vs veh, GK / RFU, ZNF148 / Fold change vs veh, ZNF148 / RFU, TAF9 / Fold change vs veh, TAF9 / RFU, SLC1A5 / Fold change vs veh, SLC1A5 / RFU, SLMO2 / Fold change vs veh, SLMO2 / RFU, ABCC4 / Fold change vs veh, ABCC4 / RFU, LOC101060439 /// RAP1B / Fold change vs veh, LOC101060439 /// RAP1B / RFU, RFX7 / Fold change vs veh, RFX7 / RFU, GTPBP10 / Fold change vs veh, GTPBP10 / RFU, CNEP1R1 / Fold change vs veh, CNEP1R1 / RFU, BIVM-ERCC5 /// ERCC5 / Fold change vs veh, BIVM-ERCC5 /// ERCC5 / RFU, ILF3 / Fold change vs veh, ILF3 / RFU 11762660_at / Fold change /veh 11762660_at / RFU VCAN (11757783_s_at) / Fold change /veh VCAN (11757783_s_at) / RFU DDX43 (11728927_at) / Fold change /veh DDX43 (11728927_at) / RFU KRT8 (11758188_x_at) / Fold change /veh KRT8 (11758188_x_at) / RFU NKD1 (11759106_at) / Fold change /veh NKD1 (11759106_at) / RFU SRD5A1 (11742802_a_at) / Fold change /veh SRD5A1 (11742802_a_at) / RFU TPSAB1 /// TPSB2 (11721975_s_at) / Fold change /veh TPSAB1 /// TPSB2 (11721975_s_at) / RFU GSTM3 (11746129_a_at) / Fold change /veh GSTM3 (11746129_a_at) / RFU IL23R (11737362_x_at) / Fold change /veh IL23R (11737362_x_at) / RFU TMEM51 (11727254_a_at) / Fold change /veh TMEM51 (11727254_a_at) / RFU PIWIL2 (11732686_x_at) / Fold change /veh PIWIL2 (11732686_x_at) / RFU ORM1 (11744905_x_at) / Fold change /veh ORM1 (11744905_x_at) / RFU CCDC152 (11743942_at) / Fold change /veh CCDC152 (11743942_at) / RFU ECM1 (11717891_a_at) / Fold change /veh ECM1 (11717891_a_at) / RFU IL23R (11748794_a_at) / Fold change /veh IL23R (11748794_a_at) / RFU TNFAIP8L3 (11732012_x_at) / Fold change /veh TNFAIP8L3 (11732012_x_at) / RFU MBOAT4 (11741988_at) / Fold change /veh MBOAT4 (11741988_at) / RFU 11764193_at / Fold change /veh 11764193_at / RFU TMEM53 (11763286_at) / Fold change /veh TMEM53 (11763286_at) / RFU MAGEB2 (11727129_at) / Fold change /veh MAGEB2 (11727129_at) / RFU TMEM200A (11744735_a_at) / Fold change /veh TMEM200A (11744735_a_at) / RFU CCDC152 (11751479_a_at) / Fold change /veh CCDC152 (11751479_a_at) / RFU FAM211A (11726209_a_at) / Fold change /veh FAM211A (11726209_a_at) / RFU RGS16 (11746705_a_at) / Fold change /veh RGS16 (11746705_a_at) / RFU VCAN (11755009_s_at) / Fold change /veh VCAN (11755009_s_at) / RFU RHOB (11743442_s_at) / Fold change /veh RHOB (11743442_s_at) / RFU RGS16 (11720943_a_at) / Fold change /veh RGS16 (11720943_a_at) / RFU RGS16 (11720944_at) / Fold change /veh RGS16 (11720944_at) / RFU, VPS4B / Fold change vs veh, VPS4B / RFU, CREB1 / Fold change vs veh, CREB1 / RFU, DNAJC13 / Fold change vs veh, DNAJC13 / RFU, GNAQ / Fold change vs veh, GNAQ / RFU, CDK5R1 / Fold change vs veh, CDK5R1 / RFU, ZRANB3 / Fold change vs veh, ZRANB3 / RFU, CUL4A / Fold change vs veh, CUL4A / RFU, CCNY / Fold change vs veh, CCNY / RFU, UFL1 / Fold change vs veh, UFL1 / RFU, COG3 / Fold change vs veh, COG3 / RFU, DIAPH2 / Fold change vs veh, DIAPH2 / RFU, SKA2 / Fold change vs veh, SKA2 / RFU, AFF3 / Fold change vs veh, AFF3 / RFU, LMF1 / Fold change vs veh, LMF1 / RFU, IPO11 / Fold change vs veh, IPO11 / RFU, DFFB / Fold change vs veh, DFFB / RFU, FOXP1 / Fold change vs veh, FOXP1 / RFU, CARD8 / Fold change vs veh, CARD8 / RFU, STRN3 / Fold change vs veh, STRN3 / RFU, ADK / Fold change vs veh, ADK / RFU, RASSF2 / Fold change vs veh, RASSF2 / RFU, WIPF1 / Fold change vs veh, WIPF1 / RFU, LARP1B / Fold change vs veh, LARP1B / RFU, RASA1 / Fold change vs veh, RASA1 / RFU, RB1 / Fold change vs veh, RB1 / RFU, PPFIA1 / Fold change vs veh, PPFIA1 / RFU, MAT2A / Fold change vs veh, MAT2A / RFU, CCT5 / Fold change vs veh, CCT5 / RFU, WDR92 / Fold change vs veh, WDR92 / RFU, CUX1 / Fold change vs veh, CUX1 / RFU, TTC7A / Fold change vs veh, TTC7A / RFU, TMEM135 / Fold change vs veh, TMEM135 / RFU, DEPTOR / Fold change vs veh, DEPTOR / RFU, CPM / Fold change vs veh, CPM / RFU, DNAJB6 / Fold change vs veh, DNAJB6 / RFU, CACNA2D3 / Fold change vs veh, CACNA2D3 / RFU, DTX4 / Fold change vs veh, DTX4 / RFU, TFCP2 / Fold change vs veh, TFCP2 / RFU, GMCL1 /// GMCL1P1 / Fold change vs veh, GMCL1 /// GMCL1P1 / RFU, AEBP2 / Fold change vs veh, AEBP2 / RFU, SNHG1 /// SNORD22 /// SNORD25 /// SNORD26 /// SNORD27 /// SNORD28 /// SNORD29 /// SNORD31 / Fold change vs veh, SNHG1 /// SNORD22 /// SNORD25 /// SNORD26 /// SNORD27 /// SNORD28 /// SNORD29 /// SNORD31 / Fold change (Aza/veh), C12orf56 (ProbeSet 11735607_a_at) / Fold change (ACY-1035/veh), C12orf56 (ProbeSet 11735607_a_at) / Fold change (Aza/veh), FGFR1OP (ProbeSet 11751329_s_at) / Fold change (ACY-1035/veh), FGFR1OP (ProbeSet 11751329_s_at) / Fold change (Aza/veh), VPS36 (ProbeSet 11739960_a_at) / Fold change (ACY-1035/veh), VPS36 (ProbeSet 11739960_a_at) / RFU SYPL1 (11715823_x_at) / Fold change /veh SYPL1 (11715823_x_at) / RFU IGFBP7 (11715501_s_at) / Fold change /veh IGFBP7 (11715501_s_at) / RFU REEP3 (11722064_at) / Fold change /veh REEP3 (11722064_at) / RFU IGLL1 (11728026_x_at) / Fold change /veh IGLL1 (11728026_x_at): dose or concentration left out as unconfirmed. It counts as cell-based, human. To be noted: ProbeSet 11743882_a_at; LIST D.

For the compound `Nc1ncn([C@@H]2O[C@H](CO)[C@@H](O)[C@H]2O)c(=O)n1` [azacitidine], the “RFU, STRN3” value was found to be 92.89 RFU.
